Measurements taken from US11179391B2, “Compound with kinase inhibitory activity and preparation method and use thereof” (priority 2017, dated 2021).
Read-outs that look alike come from different tables or passages of the source. One block for each compound: values may come before it.

Experiments:
Format in all cases: biochemical
[1] = biological target: CDK4/CycD3 (Homo sapiens, UniProt P11802); test: Determination of CDK activity (Caliper mobility shift, FAM-P8 peptide): CDK4; details: CDK4/CycD3; read-out: CDK4 enzymatic inhibitory activity (IC50)
CDK4/CycD3, sequence (P11802 whole entry): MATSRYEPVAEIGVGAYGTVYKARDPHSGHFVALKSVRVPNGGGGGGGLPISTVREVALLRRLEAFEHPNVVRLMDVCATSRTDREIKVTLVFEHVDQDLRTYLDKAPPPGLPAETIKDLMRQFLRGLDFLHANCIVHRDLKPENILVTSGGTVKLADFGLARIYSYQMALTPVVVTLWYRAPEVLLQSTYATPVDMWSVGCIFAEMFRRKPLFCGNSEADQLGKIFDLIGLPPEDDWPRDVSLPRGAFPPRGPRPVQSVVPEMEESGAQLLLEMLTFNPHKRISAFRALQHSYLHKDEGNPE
CDK4/CycD3, sequence (P30281 whole entry partner): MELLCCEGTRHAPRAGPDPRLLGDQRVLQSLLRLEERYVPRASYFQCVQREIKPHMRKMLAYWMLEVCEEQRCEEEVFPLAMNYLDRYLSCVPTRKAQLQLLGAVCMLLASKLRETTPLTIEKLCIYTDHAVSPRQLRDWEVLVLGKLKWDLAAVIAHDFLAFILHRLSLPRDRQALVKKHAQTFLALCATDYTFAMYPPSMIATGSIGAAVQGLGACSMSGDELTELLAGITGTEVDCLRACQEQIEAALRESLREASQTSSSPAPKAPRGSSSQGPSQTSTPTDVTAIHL
Procedure: (§1) In vitro, CDK (CDK4, CDK6, CDK1, CDK2, CDK7, and CDK9) kinase activity was tested by the following method.
(§2) CDK and raw materials used here: CDK4/CycD3 (Carna, Cat. No 04-105, Lot. No 10CBS-0429 C, GST-CDK4(1-303end)/GST-CycD3(1-292end)); CDK6/cycD3 (Carna, Cat. No 04-107, Lot. No 09CBS-0622K, GST-CDK6(1-326(end))); CDK1/CyclinB (Millipore, Cat. 14-450k, Lot. No 25729U, His-CDK1+GST-cyclinB); CDK2/CycA2 (Carna, Cat. No 04-103, Lot. No 06CBS-3024, GST-CDK2 (1-298(end))); CDK7/CyclinH/MAT1 (Millipore, Cat. No 14-476M, Lot. No WAB0365-A, His-CDK7+GST-MAT1+cyclinH); CDK9/cyclinTl (Millipore, Cat. No 14-685K, Lot. No. 2476163-A, His-CDK9+cyclinTl); Peptide FAM-P8 (GL Biochem, Cat. No. 112396, Lot. No. P100804-XZ112396); ATP (Sigma, Cat. No. A7699-1G, CAS No. 987-65-5); DMSO (Sigma, Cat. No. D2650, Lot. No. 474382); EDTA (Sigma, Cat. No. E5134, CAS No. 60-00-4); 96-well plate (Corning, Cat. No. 3365, Lot. No. 22008026); 384-well plate (Corning, Cat. No. 3573, Lot. No. 12608008); Staurosporine (Sigma, Cat. No. S4400-1MG, Lot. No. 046K4080).
(§3) 1. Prepared 1× Kinase Buffer and Stop Buffer for the Test
2) 1× Kinase Base Buffer (CDK4).
(§4) 1) Diluted the compound to 50 times of the maximum concentration with 100% DMSO. For example, if the desired maximum inhibitory concentration is 10 μM, then a DMSO solution of 500 μM concentration is required.
(§5) 2) Transferred the compound to a 96-well plate and serially diluted the compound from a 100% DMSO solution at a ratio of 30 μm to 60 μm for a total of 10 concentrations gradients. 3) Transferred 100 μm of 100% DMSO to two empty wells as a no compound control and a no enzyme control.
(§6) 4) Prepared intermediate plate and transferred the compound of 10 μm concentration from the original plate to the intermediate plate, and then 90 μm of 1× kinase buffer was added and mixed by shaking for 10 min.
(§7) 4) Preparing intermediate plate and transferred the compound of […] concentration from the original plate to the intermediate plate, and then 90 μm of 1× kinase buffer was added and mixed by shaking for 10 min.
(§8) 1) Transferred 5 μm of each compound from the 96-well intermediate plate to a 384-well plate. For example, A1 of the 96-well plate was transferred to A1 and A2 of the 384-well plate. A2 of the 96-well plate was transferred to A3 and A4 of the 384-well plate, and so on.
(§9) 1) Prepared a 2.5× enzyme solution: added kinase into 1× kinase base buffer.
(§10) 2) Prepared a 2.5× peptide solution: added FAM-labeled peptide and ATP into the 1× kinase base buffer.
(§11) 3) Transferred the 2.5× enzyme solution to the assay plate: Assay plate already contained 5 μm of 10% DMSO and transferred 10 μm of 2.5× enzyme solution to each well.
(§12) 4) Incubated at room temperature for 10 min.
(§13) 5) Transferred the 2.5× peptide solution to the assay plate: added 10 μm of 2.5× peptide solution to each well of the 384-well assay plate.
(§14) 6) Kinase reaction and termination: incubated at 28° C. for a specified period and added 25 μm of stop buffer to stop the reaction.
(§15) 5. Caliper Reading: Collect Data on Caliper.
(§16) 1) Copied conversion data from Caliper program and Converted conversion values to inhibition values: Inhibition rate (%)=(1−OD value of the compound-OD value of the control well)/(OD value of the control empty-OD value of the control well)*100%.
(§17) 2) Fitted the data in XLFit excel add-in version 4.3.1 to give the corresponding IC50 values.

[2] = biological target: CDK6/cycD3 (Homo sapiens, UniProt Q00534); test: Determination of CDK activity (Caliper mobility shift, FAM-P8 peptide): CDK6; details: CDK6/cycD3; read-out: CDK6 enzymatic inhibitory activity (IC50)
CDK6/cycD3, sequence (Q00534 whole entry): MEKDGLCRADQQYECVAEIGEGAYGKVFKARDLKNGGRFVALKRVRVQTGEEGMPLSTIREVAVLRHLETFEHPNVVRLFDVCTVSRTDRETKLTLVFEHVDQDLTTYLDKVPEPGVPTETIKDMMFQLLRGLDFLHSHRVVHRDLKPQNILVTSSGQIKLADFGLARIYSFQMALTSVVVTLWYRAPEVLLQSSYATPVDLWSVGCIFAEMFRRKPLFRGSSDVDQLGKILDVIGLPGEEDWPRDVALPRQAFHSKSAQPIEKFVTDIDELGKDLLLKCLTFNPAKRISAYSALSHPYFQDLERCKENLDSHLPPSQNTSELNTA
CDK6/cycD3, sequence (P30281 whole entry partner): as the sequence (P30281 whole entry partner) above
Procedure: as §1, §2, §3
(§18) 1) 1× Kinase Base Buffer (CDK1, 2, and 6).
as §4, §5, §6, §7, §8, §9, §10, §11, §12, §13, §14, §15, §16, §17

[3] = biological target: CDK1/CyclinB (Homo sapiens, UniProt P06493); test: Determination of CDK activity (Caliper mobility shift, FAM-P8 peptide): CDK1; details: CDK1/CyclinB; read-out: CDK1 enzymatic inhibitory activity (IC50)
CDK1/CyclinB, sequence (P06493 whole entry): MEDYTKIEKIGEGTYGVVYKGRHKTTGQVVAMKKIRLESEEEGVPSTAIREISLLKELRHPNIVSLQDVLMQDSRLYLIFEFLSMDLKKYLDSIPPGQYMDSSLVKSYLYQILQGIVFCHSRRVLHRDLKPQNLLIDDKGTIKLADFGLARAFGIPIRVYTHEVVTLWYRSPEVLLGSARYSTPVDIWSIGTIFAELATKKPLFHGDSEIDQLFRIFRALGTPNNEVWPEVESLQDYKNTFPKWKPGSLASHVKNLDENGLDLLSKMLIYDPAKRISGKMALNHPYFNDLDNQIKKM
CDK1/CyclinB, sequence (P14635 whole entry partner): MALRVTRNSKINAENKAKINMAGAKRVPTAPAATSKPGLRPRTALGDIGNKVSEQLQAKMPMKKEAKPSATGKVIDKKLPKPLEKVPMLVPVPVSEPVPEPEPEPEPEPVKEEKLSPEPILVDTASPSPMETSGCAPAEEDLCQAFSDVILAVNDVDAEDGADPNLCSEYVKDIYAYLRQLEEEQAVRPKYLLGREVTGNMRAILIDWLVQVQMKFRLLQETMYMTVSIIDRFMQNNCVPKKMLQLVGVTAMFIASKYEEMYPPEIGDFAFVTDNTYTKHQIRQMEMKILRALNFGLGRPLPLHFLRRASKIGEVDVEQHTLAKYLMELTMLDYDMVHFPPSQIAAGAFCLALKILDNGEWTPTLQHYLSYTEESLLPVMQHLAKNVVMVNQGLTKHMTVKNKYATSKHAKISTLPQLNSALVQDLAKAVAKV
Procedure: as §1, §3, §18, §4, §5
(§19) 1) Transferred 5 μm of each compound from the 96-well intermediate plate to a 384-well plate. […] A2 of the 96-well plate was transferred to A3 and A4 of the 384-well plate, and so on.
as §9, §10, §11, §12, §13, §14, §15, §16, §17

[4] = biological target: CDK2/CycA2 (Homo sapiens, UniProt P24941); test: Determination of CDK activity (Caliper mobility shift, FAM-P8 peptide): CDK2; details: CDK2/CycA2; read-out: CDK2 enzymatic inhibitory activity (IC50)
Procedure: as §1, §3, §18, §4, §5, §19, §9, §10, §11, §12, §13, §14, §15, §16, §17

[5] = biological target: CDK7/CyclinH/MAT1 (Homo sapiens, UniProt P50613); test: Determination of CDK activity (Caliper mobility shift, FAM-P8 peptide): CDK7; details: CDK7/CyclinH/MAT1; read-out: CDK7 enzymatic inhibitory activity (IC50)
CDK7/CyclinH/MAT1, sequence (P50613 whole entry): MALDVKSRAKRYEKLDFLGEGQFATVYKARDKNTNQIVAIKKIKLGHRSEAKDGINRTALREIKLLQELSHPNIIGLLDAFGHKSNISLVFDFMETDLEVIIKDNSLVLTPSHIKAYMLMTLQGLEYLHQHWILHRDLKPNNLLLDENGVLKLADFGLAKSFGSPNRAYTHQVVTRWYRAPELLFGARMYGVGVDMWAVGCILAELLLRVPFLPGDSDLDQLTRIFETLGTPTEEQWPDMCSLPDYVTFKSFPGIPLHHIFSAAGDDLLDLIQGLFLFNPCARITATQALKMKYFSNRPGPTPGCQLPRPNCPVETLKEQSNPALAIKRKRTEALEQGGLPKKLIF
CDK7/CyclinH/MAT1, sequence (P51946 whole entry partner): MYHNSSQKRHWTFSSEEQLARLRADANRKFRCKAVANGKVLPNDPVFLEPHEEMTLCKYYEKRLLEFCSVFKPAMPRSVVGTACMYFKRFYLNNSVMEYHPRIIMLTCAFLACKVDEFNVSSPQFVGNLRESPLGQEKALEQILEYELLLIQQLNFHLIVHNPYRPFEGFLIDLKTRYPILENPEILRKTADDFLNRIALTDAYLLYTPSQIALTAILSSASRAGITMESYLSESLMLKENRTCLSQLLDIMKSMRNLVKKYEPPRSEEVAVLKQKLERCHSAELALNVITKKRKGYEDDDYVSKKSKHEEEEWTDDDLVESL
CDK7/CyclinH/MAT1, sequence (P51948 whole entry partner): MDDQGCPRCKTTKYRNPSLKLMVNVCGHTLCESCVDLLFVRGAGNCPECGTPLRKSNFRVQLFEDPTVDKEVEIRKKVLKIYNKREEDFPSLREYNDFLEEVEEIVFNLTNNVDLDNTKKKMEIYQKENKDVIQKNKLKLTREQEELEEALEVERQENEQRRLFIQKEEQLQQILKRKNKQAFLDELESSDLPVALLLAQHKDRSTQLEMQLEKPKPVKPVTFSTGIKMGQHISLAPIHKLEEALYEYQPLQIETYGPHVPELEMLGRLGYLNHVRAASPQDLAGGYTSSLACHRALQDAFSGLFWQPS
Procedure: as §1, §2, §3
(§20) 3) 1× Kinase Base Buffer (CDK7 and 9).
as §4, §5, §6, §7, §8, §9, §10, §11, §12, §13, §14, §15, §16, §17

[6] = biological target: CDK9/cyclinTl (Homo sapiens, UniProt P50750); test: Determination of CDK activity (Caliper mobility shift, FAM-P8 peptide): CDK9; details: CDK9/cyclinTl
CDK9/cyclinTl, sequence (P50750 whole entry): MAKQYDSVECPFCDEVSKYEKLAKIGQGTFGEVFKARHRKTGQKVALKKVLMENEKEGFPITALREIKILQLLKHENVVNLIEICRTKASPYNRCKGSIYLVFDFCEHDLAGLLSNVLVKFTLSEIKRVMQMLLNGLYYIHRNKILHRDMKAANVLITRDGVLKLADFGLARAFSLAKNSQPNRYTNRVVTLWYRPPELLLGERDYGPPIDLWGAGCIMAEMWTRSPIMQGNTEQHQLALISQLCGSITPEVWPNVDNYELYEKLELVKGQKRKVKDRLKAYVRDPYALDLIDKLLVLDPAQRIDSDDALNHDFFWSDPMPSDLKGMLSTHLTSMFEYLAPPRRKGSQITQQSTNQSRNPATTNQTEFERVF
CDK9/cyclinTl, sequence (O60563 whole entry partner): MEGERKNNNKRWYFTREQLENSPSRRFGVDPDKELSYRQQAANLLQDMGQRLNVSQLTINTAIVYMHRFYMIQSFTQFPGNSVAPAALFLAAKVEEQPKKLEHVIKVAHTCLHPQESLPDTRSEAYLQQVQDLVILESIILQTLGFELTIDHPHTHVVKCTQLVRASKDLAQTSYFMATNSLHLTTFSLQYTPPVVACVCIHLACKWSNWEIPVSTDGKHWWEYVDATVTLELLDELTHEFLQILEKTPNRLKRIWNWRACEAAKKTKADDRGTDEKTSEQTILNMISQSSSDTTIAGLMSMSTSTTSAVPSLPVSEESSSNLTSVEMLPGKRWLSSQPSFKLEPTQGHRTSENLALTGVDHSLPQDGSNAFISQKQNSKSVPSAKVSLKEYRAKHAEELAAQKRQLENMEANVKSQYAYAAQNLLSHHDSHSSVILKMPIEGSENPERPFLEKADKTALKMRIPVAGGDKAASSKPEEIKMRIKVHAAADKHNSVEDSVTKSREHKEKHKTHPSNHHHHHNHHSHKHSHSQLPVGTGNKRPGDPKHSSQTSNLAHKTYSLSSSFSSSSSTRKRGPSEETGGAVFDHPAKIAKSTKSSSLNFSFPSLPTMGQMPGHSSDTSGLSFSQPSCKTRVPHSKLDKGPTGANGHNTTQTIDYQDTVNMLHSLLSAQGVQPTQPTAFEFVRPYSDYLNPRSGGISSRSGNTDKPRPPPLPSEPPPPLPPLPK
Procedure: as §1, §3, §20, §4, §5, §19, §9, §10, §11, §12, §13, §14, §15, §16, §17

[7] = read-out: CDK9 enzymatic inhibitory activity (IC50)
[8] = CDK9 enzymatic inhibitory activity (IC50)

Compound: Cc1nc2c(F)cc(-c3nc(Nc4ccc([C@H](C)C5CCN(C(C)C)CC5)cn4)ncc3F)cc2n1C(C)C (single isomer, unassigned) [Example 73]
IC50 [1]: < 0.1 µM
IC50 [2]: < 0.1 µM
IC50 [3]: 0.1 to 0.5 µM
IC50 [4]: < 0.1 µM
IC50 [5]: 1 to 10 µM
IC50 [6, 7]: 0.5 to 1 µM

Compound: COCCN1CCC([C@@H](C)c2ccc(Nc3ncc(F)c(-c4cc(F)c5nc(C)n(C(C)C)c5c4)n3)nc2)CC1 (single isomer, unassigned) [Example 79]
IC50 [1]: < 0.1 µM
IC50 [2]: < 0.1 µM
IC50 [3]: 0.1 to 0.5 µM
IC50 [4]: < 0.1 µM
IC50 [5]: 1 to 10 µM
IC50 [6, 7]: 0.1 to 0.5 µM

Compound: COCCN1CCC([C@H](C)c2ccc(Nc3ncc(F)c(-c4cc(F)c5nc(C)n(C(C)C)c5c4)n3)nc2)CC1 (single isomer, unassigned) [Example 80]
IC50 [1]: < 0.1 µM
IC50 [2]: 0.1 to 0.5 µM
IC50 [3]: 0.5 to 1 µM
IC50 [4]: 0.1 to 0.5 µM
IC50 [5]: 1 to 10 µM
IC50 [6, 7]: 0.1 to 0.5 µM

Compound: CC[C@@H](c1ccc(Nc2ncc(F)c(-c3cc(F)c4nc(C)n(C(C)C)c4c3)n2)nc1)N1CCN(C)CC1 [Example 6]
IC50 [1]: < 0.1 µM
IC50 [2]: 0.1 to 0.5 µM
IC50 [3]: 10 to 100 µM
IC50 [4]: 1 to 10 µM
IC50 [5]: 1 to 10 µM
IC50 [6, 8]: 1 to 10 µM

Compound: CC[C@H](c1ccc(Nc2ncc(F)c(-c3cc(F)c4nc(C)n(C(C)C)c4c3)n2)nc1)N1CCN(C)CC1 [Example 7]
IC50 [1]: < 0.1 µM
IC50 [2]: 1 to 10 µM
IC50 [3]: 10 to 100 µM
IC50 [4]: 10 to 100 µM
IC50 [5]: 1 to 10 µM
IC50 [6, 8]: 10 to 100 µM

Other lines, results leading:

IC50 [1]: < 0.1 µM
IC50 [2]: 0.1 to 0.5 µM
IC50 [3]: 0.5 to 1 µM
IC50 [4]: 0.1 to 0.5 µM
IC50 [5]: 1 to 10 µM
IC50 [6, 7]: 0.1 to 0.5 µM
Compound: Cc1nc2c(F)cc(-c3nc(Nc4ccc([C@@H](C)C5CCN(C(C)C)CC5)cn4)ncc3F)cc2n1C(C)C (single isomer, unassigned) [Example 74]

IC50 [1]: < 0.1 µM
IC50 [2]: 0.5 to 1 µM
IC50 [3]: 10 to 100 µM
IC50 [4]: 1 to 10 µM
IC50 [5]: 1 to 10 µM
IC50 [6, 7]: 1 to 10 µM
Compound: CC[C@@H](c1ccc(Nc2ncc(F)c(-c3cc(F)c4nc(C)n(C(C)C)c4c3)n2)nc1)N1CCNCC1 [Example 4]

IC50 [1]: < 0.1 µM
IC50 [2]: 1 to 10 µM
IC50 [3]: 10 to 100 µM
IC50 [4]: 10 to 100 µM
IC50 [5]: 1 to 10 µM
IC50 [6, 7]: 10 to 100 µM
Compound: CC[C@H](c1ccc(Nc2ncc(F)c(-c3cc(F)c4nc(C)n(C(C)C)c4c3)n2)nc1)N1CCNCC1 [Example 5]

IC50 [1]: 0.1 to 0.5 µM
IC50 [2]: 0.1 to 0.5 µM
IC50 [3]: 0.5 to 1 µM
IC50 [4]: 0.1 to 0.5 µM
IC50 [5]: 1 to 10 µM
IC50 [6, 7]: 0.5 to 1 µM
Compound: CC[C@@H](c1ccc(Nc2ncc(F)c(-c3cc(F)c4nc(C)n(C(C)C)c4c3)n2)nc1)C1CCN(CC)CC1 [Example 25]

IC50 [1]: 0.1 to 0.5 µM
IC50 [2]: 0.1 to 0.5 µM
IC50 [3]: 0.5 to 1 µM
IC50 [4]: 0.5 to 1 µM
IC50 [5]: 1 to 10 µM
IC50 [6, 7]: 0.5 to 1 µM
Compound: CC[C@H](c1ccc(Nc2ncc(F)c(-c3cc(F)c4nc(C)n(C(C)C)c4c3)n2)nc1)C1CCN(CC)CC1 [Example 26]
